In publication PMC2951761 (Biochemistry, 2010):
Where two headings read alike, the source gives them in different places.

Legend:
EF AC activity [1] = target: T1, EF AC activity (Bacillus anthracis, UniProt P40136); format: biochemical; conditions: read-out: Ki EF AC activity
EF CC activity = EF CC activity (Bacillus anthracis, UniProt P40136); format: biochemical; conditions: read-out: Ki EF CC activity
CyaA CC activity = CyaA CC activity (Bordetella pertussis, UniProt P0DKX7); format: biochemical; conditions: read-out: Ki CyaA CC activity
CyaA AC activity = CyaA AC activity (Bordetella pertussis, UniProt P0DKX7); conditions: read-out: Ki CyaA AC activity; cited from earlier work
EF AC activity [2] = target: T1, EF AC activity; conditions: read-out: Ki EF AC activity; cited from earlier work

Chain of CyaA CC activity (P0DKX7 whole entry, looked up): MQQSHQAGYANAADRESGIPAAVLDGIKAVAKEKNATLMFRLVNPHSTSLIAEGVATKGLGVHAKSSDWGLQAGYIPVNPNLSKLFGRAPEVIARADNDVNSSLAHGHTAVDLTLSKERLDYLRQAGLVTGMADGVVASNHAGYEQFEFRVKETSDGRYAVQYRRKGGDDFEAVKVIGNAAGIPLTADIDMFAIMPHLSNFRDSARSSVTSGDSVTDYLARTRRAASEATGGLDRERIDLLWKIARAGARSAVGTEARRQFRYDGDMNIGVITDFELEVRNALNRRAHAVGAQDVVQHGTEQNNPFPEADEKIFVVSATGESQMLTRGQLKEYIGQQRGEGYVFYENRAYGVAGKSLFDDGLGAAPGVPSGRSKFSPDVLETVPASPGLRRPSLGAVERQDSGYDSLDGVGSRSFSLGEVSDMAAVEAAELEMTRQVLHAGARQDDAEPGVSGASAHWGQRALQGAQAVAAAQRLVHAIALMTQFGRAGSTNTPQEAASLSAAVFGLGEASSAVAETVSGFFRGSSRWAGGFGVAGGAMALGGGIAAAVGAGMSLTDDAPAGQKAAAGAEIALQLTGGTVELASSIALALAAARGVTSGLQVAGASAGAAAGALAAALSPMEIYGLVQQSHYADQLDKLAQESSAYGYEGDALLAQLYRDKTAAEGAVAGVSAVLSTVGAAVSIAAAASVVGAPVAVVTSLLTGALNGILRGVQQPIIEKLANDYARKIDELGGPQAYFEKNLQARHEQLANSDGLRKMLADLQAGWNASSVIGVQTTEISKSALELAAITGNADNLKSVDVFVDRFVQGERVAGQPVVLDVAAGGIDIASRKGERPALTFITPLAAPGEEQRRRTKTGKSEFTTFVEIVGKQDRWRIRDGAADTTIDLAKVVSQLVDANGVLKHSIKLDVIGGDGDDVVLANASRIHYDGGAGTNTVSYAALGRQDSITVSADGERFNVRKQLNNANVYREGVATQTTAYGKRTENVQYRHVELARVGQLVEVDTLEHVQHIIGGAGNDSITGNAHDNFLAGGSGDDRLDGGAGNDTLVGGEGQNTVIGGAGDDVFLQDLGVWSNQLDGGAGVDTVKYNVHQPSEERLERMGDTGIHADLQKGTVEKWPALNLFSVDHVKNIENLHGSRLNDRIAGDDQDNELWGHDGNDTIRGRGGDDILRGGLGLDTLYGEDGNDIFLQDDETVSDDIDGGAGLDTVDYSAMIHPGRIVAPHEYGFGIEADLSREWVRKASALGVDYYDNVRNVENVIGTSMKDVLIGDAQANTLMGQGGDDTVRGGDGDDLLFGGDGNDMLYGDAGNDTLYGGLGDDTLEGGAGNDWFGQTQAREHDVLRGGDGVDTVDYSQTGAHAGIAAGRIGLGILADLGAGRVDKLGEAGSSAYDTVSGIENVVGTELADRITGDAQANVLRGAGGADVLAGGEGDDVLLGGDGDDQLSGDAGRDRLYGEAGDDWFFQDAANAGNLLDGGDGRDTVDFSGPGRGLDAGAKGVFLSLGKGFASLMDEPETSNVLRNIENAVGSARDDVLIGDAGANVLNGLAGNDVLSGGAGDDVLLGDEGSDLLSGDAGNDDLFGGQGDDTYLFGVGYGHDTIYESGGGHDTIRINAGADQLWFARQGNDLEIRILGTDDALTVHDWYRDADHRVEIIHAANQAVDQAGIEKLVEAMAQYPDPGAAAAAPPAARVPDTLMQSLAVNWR
Chain of CyaA AC activity (P0DKX7 whole entry, looked up): as above
T1 sequence (P40136 whole entry, looked up): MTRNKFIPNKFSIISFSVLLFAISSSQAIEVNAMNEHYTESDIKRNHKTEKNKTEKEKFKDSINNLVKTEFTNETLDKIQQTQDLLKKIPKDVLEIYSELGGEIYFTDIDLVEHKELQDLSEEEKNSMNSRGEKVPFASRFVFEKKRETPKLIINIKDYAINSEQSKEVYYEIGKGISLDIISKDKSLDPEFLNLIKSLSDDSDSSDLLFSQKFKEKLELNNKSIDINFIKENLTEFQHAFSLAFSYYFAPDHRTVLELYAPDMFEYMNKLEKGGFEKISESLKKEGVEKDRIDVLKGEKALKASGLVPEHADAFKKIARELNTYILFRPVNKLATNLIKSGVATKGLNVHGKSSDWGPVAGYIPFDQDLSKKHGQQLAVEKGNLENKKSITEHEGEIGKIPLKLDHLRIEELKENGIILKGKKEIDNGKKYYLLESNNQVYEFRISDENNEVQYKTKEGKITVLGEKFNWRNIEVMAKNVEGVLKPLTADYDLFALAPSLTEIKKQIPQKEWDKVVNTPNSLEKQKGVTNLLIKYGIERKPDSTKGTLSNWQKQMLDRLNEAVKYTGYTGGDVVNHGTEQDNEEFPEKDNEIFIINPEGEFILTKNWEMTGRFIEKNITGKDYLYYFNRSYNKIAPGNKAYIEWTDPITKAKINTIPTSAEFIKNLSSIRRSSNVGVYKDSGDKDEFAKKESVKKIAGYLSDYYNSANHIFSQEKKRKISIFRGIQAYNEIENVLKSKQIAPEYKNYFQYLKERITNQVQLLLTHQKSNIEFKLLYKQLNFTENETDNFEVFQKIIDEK
Chain of EF CC activity (P40136 whole entry, looked up): as above

Molecule | Ki (EF AC activity [1]) [µM] | Ki (EF CC activity) [µM] | Ki (CyaA CC activity) [µM] | Ki (CyaA AC activity) [µM] | Ki (EF AC activity [2]) [µM]
Nc1ncnc2c1ncn2CCOCP(=O)(O)OP(=O)(O)OP(=O)(O)O [PMEApp, [9-[2-(Phosphonomethoxy)ethyl]adenine diphosphate]] | 0.002 ± 0.0005 | 0.0045 ± 0.0004 |  |  | 
MANT-ATP |  |  | 4.4 ± 0.1 | 4.3 ± 0.4 | 
MANT-GTP |  | 2.8 ± 0.4 | 6.1 ± 2 | 5.9 ± 1 | 2.5 ± 0.1
